Source: article PMC4844176 (Xenobiotica; the fate of foreign compounds in biological …, 2015)
Where “and” joins values, the source holds several entries; their conditions need not be identical. Equal values may be shown once.

Columns and labels:
UGT1A3 [1] = target: T1, UGT1A3 (Homo sapiens, UniProt P35503); assay: Inhibition of aprepitant glucuronidation by UGT specific inhibitors in UGT1A3; settings: UGT1A3 Supersomes, pH 7.5, probe aprepitant 5 µM, AP-G formation
T1 sequence (P35503 29-534): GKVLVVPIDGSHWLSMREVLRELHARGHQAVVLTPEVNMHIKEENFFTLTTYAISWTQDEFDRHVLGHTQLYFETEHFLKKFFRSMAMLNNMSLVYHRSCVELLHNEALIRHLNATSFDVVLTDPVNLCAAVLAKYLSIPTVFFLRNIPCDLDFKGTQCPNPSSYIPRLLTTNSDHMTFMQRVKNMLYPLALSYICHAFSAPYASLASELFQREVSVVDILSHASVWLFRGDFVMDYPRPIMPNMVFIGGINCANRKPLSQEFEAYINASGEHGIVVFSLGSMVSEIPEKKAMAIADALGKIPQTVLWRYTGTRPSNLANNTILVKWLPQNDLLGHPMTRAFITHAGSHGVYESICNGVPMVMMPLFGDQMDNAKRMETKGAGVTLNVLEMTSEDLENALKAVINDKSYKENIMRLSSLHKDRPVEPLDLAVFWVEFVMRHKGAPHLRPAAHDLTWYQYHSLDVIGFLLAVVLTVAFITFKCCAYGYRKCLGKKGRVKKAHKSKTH

[2] = tested on: human liver microsomes (HLM); assay: Inhibition of aprepitant glucuronidation by UGT specific inhibitors in HLM; assay type: in vitro ADME; settings: for inhibition of aprepitant glucuronidation: aprepitant at 5 µM and at the Kms
UGT1A3 [3] = target: T1, UGT1A3; assay: in vitro; settings: UGT1A3 Supersomes, pH 7.5, probe aprepitant […] µM (Km), AP-G formation
[4] = tested on: human intestinal microsomes (HIM)
UGT1A8 = target: T2, UGT1A8 (Homo sapiens, UniProt Q9HAW9); assay: in vitro; settings: UGT1A8 Supersomes, pH 7.5, probe aprepitant […] (Km), AP-G formation
T2 sequence (Q9HAW9 26-530): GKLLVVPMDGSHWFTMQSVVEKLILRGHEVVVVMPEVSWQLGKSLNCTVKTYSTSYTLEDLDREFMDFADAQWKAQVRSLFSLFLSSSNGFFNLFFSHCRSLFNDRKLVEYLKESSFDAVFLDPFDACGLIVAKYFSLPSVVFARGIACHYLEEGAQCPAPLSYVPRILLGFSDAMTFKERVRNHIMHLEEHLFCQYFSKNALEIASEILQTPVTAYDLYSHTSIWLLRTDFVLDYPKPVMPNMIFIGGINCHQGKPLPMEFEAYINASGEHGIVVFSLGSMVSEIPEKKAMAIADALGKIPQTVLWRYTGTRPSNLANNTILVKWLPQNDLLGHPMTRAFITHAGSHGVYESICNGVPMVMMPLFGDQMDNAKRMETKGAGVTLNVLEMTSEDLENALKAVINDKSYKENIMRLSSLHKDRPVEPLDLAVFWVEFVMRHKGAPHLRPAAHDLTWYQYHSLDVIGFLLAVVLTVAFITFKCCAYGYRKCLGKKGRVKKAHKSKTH

UGT2B7 = target: T3, UGT2B7 (Homo sapiens, UniProt P16662); settings: ref Veal et al., 1995; Barbier et al., 2000; cited from earlier work
T3 sequence (P16662 24-529): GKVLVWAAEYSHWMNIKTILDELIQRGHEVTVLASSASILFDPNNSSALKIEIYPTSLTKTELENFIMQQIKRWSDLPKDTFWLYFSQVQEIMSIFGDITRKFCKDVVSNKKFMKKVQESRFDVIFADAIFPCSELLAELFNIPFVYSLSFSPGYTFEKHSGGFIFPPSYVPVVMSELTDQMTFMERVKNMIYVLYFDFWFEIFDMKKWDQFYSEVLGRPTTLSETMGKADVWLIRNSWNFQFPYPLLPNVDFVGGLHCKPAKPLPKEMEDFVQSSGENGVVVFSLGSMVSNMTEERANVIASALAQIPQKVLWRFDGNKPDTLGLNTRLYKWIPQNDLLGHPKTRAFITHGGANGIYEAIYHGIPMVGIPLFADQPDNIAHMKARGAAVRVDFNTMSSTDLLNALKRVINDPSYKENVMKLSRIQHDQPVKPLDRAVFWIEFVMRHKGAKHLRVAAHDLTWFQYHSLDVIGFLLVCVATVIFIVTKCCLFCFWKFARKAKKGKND

UGT1A4 [5] = target: T4, UGT1A4 (Homo sapiens, UniProt P22310)
T4 sequence (P22310 29-534): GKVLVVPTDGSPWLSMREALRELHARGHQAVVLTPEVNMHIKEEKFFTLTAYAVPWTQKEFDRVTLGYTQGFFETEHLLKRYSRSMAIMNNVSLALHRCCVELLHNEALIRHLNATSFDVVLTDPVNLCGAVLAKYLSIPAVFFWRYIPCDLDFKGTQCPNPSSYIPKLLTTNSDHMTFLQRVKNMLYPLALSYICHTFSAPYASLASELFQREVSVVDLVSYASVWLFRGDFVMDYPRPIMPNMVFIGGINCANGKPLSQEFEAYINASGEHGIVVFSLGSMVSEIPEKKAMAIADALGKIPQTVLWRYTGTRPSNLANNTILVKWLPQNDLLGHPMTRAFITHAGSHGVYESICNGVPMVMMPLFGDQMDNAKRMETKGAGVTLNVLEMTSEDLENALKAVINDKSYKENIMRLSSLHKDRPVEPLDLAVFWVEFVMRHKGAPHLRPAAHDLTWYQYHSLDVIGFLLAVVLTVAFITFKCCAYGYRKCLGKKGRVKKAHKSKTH

UGT1A4 [6] = target: T4, UGT1A4; assay: Inhibition of aprepitant glucuronidation by UGT specific inhibitors in UGT1A4; settings: UGT1A4, aprepitant 5 µM, 200 µM hecogenin
not read = substrate: C[C@@H](O[C@H]1OCCN(Cc2n[nH]c(=O)[nH]2)[C@H]1c1ccc(F)cc1)c1cc(C(F)(F)F)cc(C(F)(F)F)c1; assay: not read; settings: mean ± SE, pH 7.5, 37.0 °C
[7] = aprepitant 5 µM, 1000 µM sulfinpyrazone or 200 µM hecogenin

Question: With `O=C1C(CC[S+]([O-])c2ccccc2)C(=O)N(c2ccccc2)N1c1ccccc1` (stereo not shown) [sulfinpyrazone] as the molecule, how does the inhibition at 60 min, 1000 µM (UGT1A3 [1]) read?
Answer: 100%

Question: What about the “Percent inhibition of aprepitant glucuronidation” value (shortened to “Percent inhibition”) [2, 7] of the same molecule?
Answer: 22.2%

Question: And the “Percent inhibition” value ([2]; aprepitant […] µM (Km for UGT1A3), 1000 µM sulfinpyrazone)?
Answer: 22.1%

Question: And the “inhibition of aprepitant glucuronidation” value [2]?
Answer: < 25%

Question: And the inhibition at 60 min, 1000 µM (UGT1A3 [3])?
Answer: 100%

Question: Which inhibition [4] does the source give for `O=C(O)Cc1ccccc1Nc1c(Cl)cccc1Cl` [diclofenac] here?
Answer: 100%

Question: And the inhibition at 60 min, 500 µM (UGT1A8)?
Answer: 66.7%

Question: With `Cc1cn([C@H]2C[C@H](N=[N+]=[N-])[C@@H](CO)O2)c(=O)[nH]c1=O` [AZT, 3’-azido-3’-deoxythymidine] as the molecule, how does the “share of glucuronidation catalyzed by UGT2B7” value (UGT2B7) read?
Answer: 60–70%

Question: Which “Percent inhibition” value [2, 7] does the source give for hecogenin here?
Answer: 100%

Question: What about the “Percent inhibition” value ([2]; aprepitant […] (Km for UGT1A4), 200 µM hecogenin) of the same molecule?
Answer: 80.8%

Question: What about the “inhibition of aprepitant glucuronidation” value [2] of the same molecule?
Answer: high inhibition

Question: What about the inhibition (UGT1A4 [5]) of the same molecule?
Answer: 83.9%

Question: And the “Percent inhibition” value (UGT1A4 [6])?
Answer: 100%

B1: UGT1A4 (Homo sapiens) (protein)
chain: T4 sequence (P22310 29-534)
Question: For B1, which K0.5 (not read; other: UGT1A4, Michaelis-Menten) is on record?
Answer: 161.6 ± 15.6 µM and 162 ± 16 µM

B2: UGT1A3 (Homo sapiens) (protein)
chain: T1 sequence (P35503 29-534)
Question: For B2, which K0.5 (not read; other: UGT1A3, Michaelis-Menten) is on record?
Answer: 69.4 ± 1.9 µM and 69 ± 2 µM

B3: UGT1A8 (Homo sapiens) (protein)
chain: T2 sequence (Q9HAW9 26-530)
Question: With B3 as the molecule, how does the K0.5 (not read; other: UGT1A8, Hill equation (S50)) read?
Answer: 197.1 ± 28.2 µM and 197 ± 28 µM
